Assay results as given in patent USRE46943E1, “Radioprotector compounds and methods” (PETER MACCALLUM CANCER INSTITUTE, priority 2010, dated 2018).

Legend:
[1] = system: transformed human keratinocyte cell line (FEP 1811); experiment: Clonogenic survival cell culture assay for radioprotective activity (12 Gy 137Cs gamma irradiation); format: cell-based; conditions: 12 Gy; for DMF10 (dose modification factor at a concentration of 10 microM of radioprotector): 10 microM radioprotector; for DMFm (dose modification factor at maximum protection): DMF=Dp/Dc at survival level Sm; for PF (protection factor = Sm/So): survival at maximum protection vs irradiation only
Excerpt: PF is defined as a ratio of survival at maximum protection Sm and survival after irradiation only So: PF=Sm/So. DMF is defined as a ratio of doses that result in survival level of Sm in the presence Dp and the absence Dc of radioprotector: DMF=Dp/Dc. DMF10 is define in a similar way except that instead of Sm a survival at 10 microM of radioprotector is used.
PF (Protection Factor) is defined as a ratio of survival at maximum protection Sm and survival after irradiation only So:PF=Sm/So. DMF (Dose Modification Factor) is defined as a ratio of doses that result in survival level of Sm in the presence (Dp) and the absence (Dc) of radioprotector: DMF=Dp/Dc. DMF10 is defined in a similar way except that instead of Sm a survival at 10 microM of radioprotector is used.
(§1) • i. […] In appropriate cases, tautomers are drawn to illustrate potential hydrogen-bond donating configurations into the minor groove of DNA. • ii. 2-Amino-4-(5′-(4″-methylpiperazin-1″-yl)benzimidazol-2′-yl)aniline was prepared by hydrogenation of 4-(5′-(4″-methylpiperazin-1″-yl)benzimidazol-2′-yl)-2-nitroaniline, using a modification of the method of Kelly et al, Aust. […] 2-Amino-4-(5′-(piperidin-1″-yl)benzimidazol-2′-yl)aniline was prepared by hydrogenation of 2-nitro-4-(5′-(piperidin-1″-yl)benzimidazol-2′-yl)aniline, using a modification of the method of Kelly et al, Aust. […] Ethyl 4-amino-3-nitrobenzenecarboximidate hydrochloride was prepared by reaction of 4-amino-3-nitrobenzonitrile with dry HCl gas in ethanol, using the method of Kelly et al, Aust. […] 5-(4′-Methylpiperazin-1′-yl)-2-nitroaniline was prepared using a modification of the method of Kelly et al, Aust. […] The following chemicals were obtained from the chemical suppliers indicated: 2-furaldehyde (Aldrich), 2-pyridinecarboxaldehyde (Aldrich), 3-fluoropyridine-2-carbaldehyde (Maybridge), 3-trifluoromethylpyridine-2-carboxaldehyde (Apollo Scientific), 6-methyl-2-pyridinecarboxaldehyde (Matrix Scientific), 5-methylpyridine-2-carbonitrile (Apollo Scientific), 4-methyl-2-pyridinecarbonitrile (Aldrich), 4-chloro-2-pyridinecarbonitrile (Aldrich), 4-methoxypicolinonitrile (Combi-Blocks), pyrazinecarbonitrile (Aldrich), 2-quinolinecarbonitrile (Aldrich), 3-isoquinolinecarbonitrile (Aldrich), 1-isoquinolinecarboxylic acid (Aldrich), indazole-3-carboxylic acid (Aldrich), 2-hydroxynicotinic acid (Aldrich), 4-hydroxypiperidine (Aldrich), 1-methylhomopiperazine (Aldrich), 3-hydroxypiperidine (Aldrich), 4-(N-BOC-amino)piperidine (Aldrich), 4-methoxypiperidine (Acros), 4-methyl-3-nitrobenzonitrile (Aldrich), 5-chloro-2-nitroaniline (Aldrich), 2-cyanopyridine (Aldrich), methyl 4-amino-2-methoxybenzoic acid (Aldrich), 4-(trifluoromethyl)-2-pyridinecarbonitrile (Matrix Scientific), cis-2,6-dimethylmorphoiline (Acros), 5-(trifluoromethyl)-2-pyridinecarbonitrile (Advanced Chemical Intermediates) and 5-fluoro-2-pyridinecarbonitrile (Advanced Chemical Intermediates). • ix. […] Melting points were determined using an Electrothermal melting point apparatus, and are uncorrected. […] The abbreviations s for singlet, d for doublet, t for triplet, q for quartet, br for broad and m for muitiplet were used in the assignments of multiplicity. A value approximating the centre of a multiplet is quoted. […] The addition of a few drops of acetic acid to methanol-d4 solutions was used to enhance solubility for the acquisition of ^13C nmr spectra. Mass spectra were recorded on a Micromass Quattro II mass spectrometer and accurate mass analyses were carried out by the School of Chemistry at the University of Melbourne on a Finnigan LTQ-FT model high resolution mass spectrometer. Thin layer chromatography (TLC) was carried out using Merck silica gel 60 F254 aluminium sheets or Merck neutral aluminium oxide 150 F254 sheets. Flash column chromatography was carried out using Ajax silica gel 230-400 mesh. • xi.

[2] = system: transformed human keratinocyte cell line (FEP 1811); experiment: Clonogenic survival cell culture assay for cytotoxicity; format: cell-based; conditions: Homo sapiens, Keratinocyte, light or radiation study; un-irradiated keratinocytes, one hour drug exposure, colonies counted after eight days; read-out: C50 (concentration of radioprotector that results in 50% clonogenic survival)
Protocol: as §1, with “xi. […] The details are described in detail in Martin et al (4) (the disclosure of which is included herein in its entirety by way of reference), but briefly, mid-log phase monolayer cultures are incubated with various concentrations of the test drugs for one hour, after which the monolayers are washed and dispersed into single cell suspensions using pronase, and finally appropriate numbers of cells are dispensed into Petri dishes. Colonies are counted after eight days incubation. […] The irradiation (with a dose rate of 0.6 Gy per minute) is started 30 minutes after addition of the test drug. After completion of irradiation, incubation of cultures is continued until the total time of exposure to the drug reaches 60 minutes. Cultures are then washed and plated for clonogenic survival as described for the cytotoxicity experiments.” for “xi.”

With `Cc1ccnc(-c2nc3ccc(-c4nc5ccc(N6CCC(O)CC6)cc5[nH]4)cc3[nH]2)c1` [Example 50, 2-(5′-(5″-(4′″-hydroxypiperidin-1′″-yl)benzimidazol-2″-yl)benzimidazol-2′-yl)-4-methylpyridine] as the compound, how does the “DMF10 (dose modification factor at a concentration of 10 microM of radioprotector)” value (shortened to “DMF10”) [1] read?
The value was 1.33.

What about the “DMFm (dose modification factor at maximum protection)” value (“DMFm” for short) [1] of the same compound?
The value was 1.79.

And the “PF (protection factor = Sm/So)” value [1]?
Its value is 23.5.

What about the IC50 [2] of the same compound?
The IC50 was 134 µM.

What about the melting point of the same compound?
Its melting point is 204 to 209 °C.

Which results are given for `CN1CCN(c2ccc3nc(-c4ccc5nc(-c6ncccc6F)[nH]c5c4)[nH]c3c2)CC1` [Example 3, 3-Fluoro-2-(5′-(5″-(4′″-methylpiperazin-1′″-yl)benzimidazol-2″-yl)benzimidazol-2′-yl)pyridine]?
DMF10 (dose modification factor at a concentration of 10 microM of radioprotector) [1]: 1.40; DMFm (dose modification factor at maximum protection) [1]: 1.80; PF (protection factor = Sm/So) [1]: 15.3; IC50 [2]: 93.1 µM; melting point: 201 to 214 °C

Which results are given for `CN1CCCN(c2ccc3nc(-c4ccc5nc(-c6ccccn6)[nH]c5c4)[nH]c3c2)CC1` [Example 25, 2-(5′-(5″-(4′″-Methyl-1′″,4′″-diazepan-1′″-yl)benzimidazol-2″-yl)benzimidazol-2′-yl)pyridine]?
DMF10 (dose modification factor at a concentration of 10 microM of radioprotector) [1]: 1.77; DMFm (dose modification factor at maximum protection) [1]: 2.14; PF (protection factor = Sm/So) [1]: 16.7; IC50 [2]: 123 µM; melting point: 185 °C (dec.)

Which results are given for `CN1CCN(c2ccc3nc(-c4ccc5nc(-c6cnccn6)[nH]c5c4)[nH]c3c2)CC1` [Example 12, 2-(5′-(5″-(4′″-Methylpiperazin-1′″-yl)benzimidazol-2″-yl)benzimidazol-2′-yl)pyrazine]?
DMF10 (dose modification factor at a concentration of 10 microM of radioprotector) [1]: 1.15; DMFm (dose modification factor at maximum protection) [1]: 1.29; PF (protection factor = Sm/So) [1]: 6.5; IC50 [2]: 54.2 µM; melting point: 175 °C (dec.)

For `CN1CCN(c2ccc3nc(-c4ccc5nc(-c6ncccc6C(F)(F)F)[nH]c5c4)[nH]c3c2)CC1` [Example 4, 2-(5′-(5″-(4′″-Methylpiperazin-1′″-yl)benzimidazol-2″-yl)benzimidazol-2′-yl)-3-trifluoromethylpyridine], which “DMF10” value [1] is on record?
Its value is 1.41.

What about the “DMFm” value [1] of the same compound?
Its value is 1.99.

What about the “PF (protection factor = Sm/So)” value [1] of the same compound?
Its value is 30.5.

And the IC50 [2]?
Its IC50 is 190 µM.

And the melting point?
The melting point was 189 to 191 °C.

With `c1ccc(-c2nc3ccc(-c4nc5ccc(N6CCCCC6)cc5[nH]4)cc3[nH]2)nc1` [Example 24, 2-(5′-(5″-(Piperidin-1′″-yl)benzimidazol-2″-yl)benzimidazol-2′-yl)pyridine] as the compound, how does the “DMF10” value [1] read?
The value was 1.35.

And the “DMFm” value [1]?
Its value is 1.42.

What about the “PF (protection factor = Sm/So)” value [1] of the same compound?
The value was 7.5.

And the IC50 [2]?
Its IC50 is 24 µM.

What about the melting point of the same compound?
Its melting point is 196 to 203 °C.

With `CN1CCN(c2ccc3nc(-c4ccc5nc(-c6nccc7ccccc67)[nH]c5c4)[nH]c3c2)CC1` [Example 15, 1-(5′-(5″-(4′″-Methylpiperazin-1′″-yl)benzimidazol-2″-yl)benzimidazol-2′-yl)isoquinoline] as the compound, how does the “DMF10” value [1] read?
Its value is 1.70.

What about the “DMFm” value [1] of the same compound?
Its value is 1.85.

And the “PF (protection factor = Sm/So)” value [1]?
Its value is 36.9.

What about the IC50 [2] of the same compound?
Its IC50 is 26.9 µM.

What about the melting point of the same compound?
The melting point was 214 to 217 °C.

For `CN1CCN(c2ccc3nc(-c4ccc5nc(-c6cc(Cl)ccn6)[nH]c5c4)[nH]c3c2)CC1` [Example 8, 4-Chloro-2-(5′-(5″-(4′″-methylpiperazin-1′″-yl)benzimidazol-2″-yl)benzimidazol-2′-yl)pyridine], which “DMF10” value [1] is on record?
The value was 2.12.

What about the “DMFm” value [1] of the same compound?
The value was 2.20.

And the “PF (protection factor = Sm/So)” value [1]?
Its value is 39.6.

And the IC50 [2]?
The IC50 was 80 µM.

What about the melting point of the same compound?
The melting point was 195 °C (dec.).
